Literature values in patent publication US4439425A, “Peptide derivatives” (Ciba-Geigy Corporation, priority 1979, dated 1984).

Test system: lymphocytes
Details: Z. Immun.-Forschung 153, 11-22 (1977)

In the case of “murein lipoprotein: murein lipoprotein of the outer cell wall of Escherichia coli”, the “in vitro mitogenic activity” value is given as “in vitro mitogenic activity towards some lymphocytes”.
